The numbers were not newly measured in US5667811A, “Na-K-ATPase inhibiting natriuretic substances” (The Regents of the University of California, priority 1992, dated 1997), which cites them from elsewhere.

No end group written: not given here.

In one series the test system is active transport. Conditions: literature.
A further series relates to Na-K-ATPase. The settings on record: literature.

Consider “ANF: atrial natriuretic factor, synthesized or stored in cardiac atria (SLRRSSCFGGRMDRIGAQSGLGCNSFRY; ends and bridges not checked; cysteine pairing not given here; UniProt P01160 124-151, looked up)”, for which the “inhibition of active transport” value in the series on active transport is on record as “does not inhibit active transport”.

For the substance lysophosphatidyl choline, the Na-K-ATPase inhibition entry with Na-K-ATPase was “potent Na-K-ATPase inhibitors”.
